According to patent publication US20010018956A1, “Multi-component system for modifying, degrading or bleaching lignin, lignin-containing materials or similar substances and processes for its use” (CONSORTIUM FUR ELEKTROCHEMISCHE INDUSTRIE GmbH, priority 1996, published 2001):

Test: Enzymatic bleaching of softwood sulfate pulp with laccase and mediator; kappa number determined after NaOH extraction
Settings: laccase from Trametes versicolor 15 U/g of pulp; incubation time 2 hours; pH 4.5; 45° C.; oxygen pressure 1-10 bar; mediator dosage per 5 g of pulp as in table
Description: 5 g of bone-dry pulp (softwood O2 delignified), pulp consistency 30% (about 17 g moist) are added to the following solutions:
A) 56.5 mg of N-hydroxyacetanilide are added to 20 ml of tap water, while stirring, and the pH is adjusted with 0.5 mol/l of H2SO4 solution such that pH 4.5 results after addition of the pulp and the enzyme.
B) An amount of laccase from Trametes versicolor is added to 5 ml of tap water such that an activity of 15 U (1 U=conversion of 1 μmol of ABTS/minute/ml of enzyme) per g of pulp results.
Solutions A and B are brought together and topped up to 33 ml. After addition of the pulp, the mixture is mixed with a dough kneader for 2 minutes.
The pulp is then introduced into a reaction bomb preheated to 45° C. and incubated under an increased oxygen pressure of 1-10 bar for 1-4 hours.
Thereafter, the pulp is washed over a nylon screen (30 gm) and extracted for 1 hour at 60° C. at a pulp consistency of 2% with 8% of NaOH per g of pulp.
After renewed washing of the pulp, the kappa number is determined.

| SMILES | Ligin degradation [%] |
| --- | --- |
| O=C(Oc1ccccc1)N(O)c1ccccc1 [Phenyl N-hydroxy-N-phenylcarbamate] | 20.0 |
| CC(=O)N(O)c1ccc(C#N)cc1 [N-hydroxy-4-cyanoacetanilide] | 35.6 |
